Laboratory results reported in ChEMBL document CHEMBL3763141, “Anti-Candida Cassane-Type Diterpenoids from the Root Bark of Swartzia simplex” (2015).
Converted amounts (≈) assume the structure as drawn. The source made the active and inactive calls. The rule behind the calls is not given here.

Experiments:
Candida albicans [1] = assay: Antibiofilm activity against Candida albicans CAF2-1 after 48 hrs by XTT assay; type: functional; details: CAF2-1, 48 h
Candida albicans [2] = assay: Antifungal activity against Candida albicans CAF2-1 after 24 hrs by spectrophotometry based broth dilution assay; type: functional; details: CAF2-1, 24 h
Candida albicans [3] = assay: Antifungal activity against hypersusceptible Candida albicans DSY2621 mutant after overnight incubation by MTT based bioautography method; type: functional
Candida albicans [4] = assay: Antifungal activity against Candida albicans CAF2-1 after overnight incubation by MTT based bioautography method; type: functional
Candida albicans [5] = assay: Induction of ultrastructural changes in Candida albicans CAF2-1 assessed as cytoplasmic content dis-organization with disappearance of golgi apparatus at 16 ug/ml after 18 hrs by uranyl acetate/lead citrate staining based transmission electron microscopy; type: functional, organism-based
Candida albicans [6] = assay: Induction of ultrastructural changes in Candida albicans CAF2-1 assessed as breakage zones of plasma membrane at 16 ug/ml after 18 hrs by uranyl acetate/lead citrate staining based transmission electron microscopy; type: functional, organism-based
Candida albicans [7] = assay: Induction of ultrastructural changes in Candida albicans CAF2-1 assessed as cytoplasmic content dis-organization with disappearance of ribosomes at 16 ug/ml after 18 hrs by uranyl acetate/lead citrate staining based transmission electron microscopy; type: functional, organism-based
Candida albicans [8] = assay: Induction of ultrastructural changes in Candida albicans CAF2-1 assessed as retraction of cytoplasm at 16 ug/ml after 18 hrs by uranyl acetate/lead citrate staining based transmission electron microscopy; type: functional, organism-based
Candida albicans [9] = assay: Induction of ultrastructural changes in Candida albicans CAF2-1 assessed as reduction in budding initiation at 16 ug/ml after 18 hrs by uranyl acetate/lead citrate staining based transmission electron microscopy; type: functional, organism-based
Candida albicans [10] = assay: Induction of ultrastructural changes in Candida albicans CAF2-1 assessed as disorganization and disruption of nuclear membrane at 16 ug/ml after 18 hrs by uranyl acetate/lead citrate staining based transmission electron microscopy; type: functional, organism-based
Candida albicans [11] = assay: Induction of ultrastructural changes in Candida albicans CAF2-1 assessed as cytoplasmic content dis-organization with disappearance of mitochondria at 16 ug/ml after 18 hrs by uranyl acetate/lead citrate staining based transmission electron microscopy; type: functional, organism-based
Candida albicans [12] = assay: Induction of ultrastructural changes in Candida albicans CAF2-1 assessed as cytoplasmic content dis-organization at 16 ug/ml after 18 hrs by uranyl acetate/lead citrate staining based transmission electron microscopy; type: functional, organism-based

Compound	MIC (Candida albicans [1]) [µg/mL]	MIC (Candida albicans [2]) [µg/mL]	MIC (Candida albicans [3]) [µg]	MIC (Candida albicans [4]) [µg]	further results
CC1(C)CCC[C@]2(C)c3c(O)c(O)c4ccoc(=O)c4c3CC[C@@H]12	50 (≈ 152 µM)	> 32			
COc1c(O)c2c(c3c(=O)occc13)CC[C@H]1C(C)(C)C(=O)CC[C@]21C	> 50	> 32	10	>50	
COc1c(O)c2c(c3c1[C@H](O)COC3=O)CC[C@H]1C(C)(C)CCC[C@]21C	50 (≈ 139 µM)	32 (≈ 88.8 µM)	5	2	
COc1c(O)c2c(c3c(=O)occc13)CC[C@H]1C(C)(C)CCC[C@]21C	> 50	> 32		>50	
CC1(C)CCC[C@]2(C)c3c(O)c(O)c4c(c3CC[C@@H]12)C(=O)OCC4	50 (≈ 151 µM)	> 32	8	>50	
COc1c(O)c2c(c3c1CCOC3=O)CC[C@H]1C(C)(C)CCC[C@]21C	> 50	> 32	>50	>50	
C[C@H]1C(CCO)=C(O)C(=O)[C@H]2[C@H]1CC[C@H]1C(C)(C)CCC[C@]21C	> 50	> 32	<20		
CC1(C)CCC[C@]2(C)c3c(O)c(O)c4c(c3C=C[C@@H]12)C(=O)O[C@@H]4CO	50 (≈ 145 µM)	> 32	>50	>50	
COc1c(O)c2c(c3c1[C@@H](CO)OC3=O)CC[C@H]1C(C)(C)C(=O)CC[C@]21C	> 50	> 32	>50	>50	
COc1ccc(-c2coc3cc(O)c(OC)cc3c2=O)cc1 [CASTANIN]	> 50	> 32		>50	
Clc1ccc(COC(Cn2ccnc2)c2ccc(Cl)cc2Cl)c(Cl)c1 (stereo not given) [MICONAZOLE]		0.0156 (≈ 0.0375 µM)	0.0006	0.005	
COc1c(O)c2c(c3c1[C@@H](CO)OC3=O)CC[C@H]1C(C)(C)CCC[C@]21C	> 50	> 32	20	>50	
COc1c(O)c2c(c3c1CCOC3=O)CC[C@H]1C(C)(C)C(=O)CC[C@]21C	> 50	> 32	>50	>50	
COc1c(O)c2c(c3c1[C@@H](CO)OC3=O)CC[C@H]1[C@@H]3C[C@@H]3CC[C@]21C	50 (≈ 145 µM)	> 32			
CC1(C)CCC[C@]2(C)c3c(O)c(O)c4c(c3CC[C@@H]12)C(=O)O[C@H]4CO	25 (≈ 72.2 µM)	32 (≈ 92.4 µM)	8	>50	Activity (Candida albicans [5]): Active; Activity (Candida albicans [6]): Active; Activity (Candida albicans [7]): Active; Activity (Candida albicans [8]): Active; Activity (Candida albicans [9]): Active; Activity (Candida albicans [10]): Active; Activity (Candida albicans [11]): Active; Activity (Candida albicans [12]): Active
